In patent US20240209028A1, “CNP COMPOUNDS” (priority 2022, published 2024):
Starred links: 1 amine or outer side, 2 acyl side, 3 side chain; linkers in the order of their positions; H or OH if unused. Positions of bridges follow the written chain, without caps; N, C: chain ends. Residues, ends and D or L forms follow the SMILES beside them. *: point of attachment. C20 diacid = O=C(O)CCCCCCCCCCCCCCCCCCC(=O)*; γGlu = O=C(O)[C@H](CCC(=O)[*:2])N[*:1]; AEEA = NCCOCCOCC(=O)O

Test: PK of CNP compounds after i.v. and s.c. administration to rats
Details: male, Sprague Dawley, in vivo, iv, rat, i.v., about 100 nmol/kg
Protocol: In order to assess the i.v. and s.c. PK/PD profile of CNP compounds of the present invention, formulations of CNP compounds were administered to rats, blood samples taken and exposure and cGMP response measured.
Quantitative plasma analysis of CNP-compounds: Plasma concentrations of CNP compounds were assayed by plasma protein precipitation and analysed by turboflow liquid chromatography mass spectrometry (TF-LC-MS). Calibrators were prepared by spiking either blank rat or minipig plasma with the relevant CNP compound in the range from 0.5 to 2000 nM. Calibrators, plasma blanks or study samples were prepared for TF-LC-MS by protein precipitation by adding three or four volumes of either ethanol or methanol containing 20 nM of internal standard to one volume of sample. For some compounds, formic acid was added to the precipitation reagent (the final concentration was 1% v/v). After the addition of the precipitation reagent, the mixture was centrifuged at 6200 rpm at 4° C. for 30 minutes. After centrifugation, one volume of supernatant was mixed with two volumes of water (with 1% v/v formic acid). The mixture was analysed by TF-LC-MS using a Cyclone turboflow column (0.5×50 mm, ThermoFisher Scientific) and either a XBridge Protein BEH C4 3.5 μm 300 Åor a XBridge Protein BEH C18 3.5 μm 130 Åanalytical column (both were 50×2.1 mm and obtained from Waters). […] The mass spectrometer was operated in positive ionisation mode. A TSQ Altis mass spectrometer (ThermoFisher Scientific) was used as detector in selected reaction monitoring mode (specific transition were optimised for each CNP compound). Linear calibration curves (weighed 1/×2) were used for calculating the concentration in the plasma samples. Quality control samples were included. The deviation between nominal and calculated concentration in the calibrators and quality control samples were below 15%.
Animals and dosing: Groups of 4-6 rats (male, Sprague Dawley, 350 g at arrival, Janvier, France) per compound and route of administration were dosed with a CNP compound formulated either in A) 8 mM sodium phosphate, 250 mM glycerol, 0.007% polysorbate 20, pH 7.4 or B) 5 mM sodium acetate, 250 mM glycerol, 0.007% polysorbate 20, pH 4.0 depending on the respective compound. S.c. dose was 300 nmol/kg, at a concentration of […] resulting in a dosing volume of 0.3 mL/kg, whereas i.v. dose was 100 nmol/kg, at a concentration of […] resulting in a dosing volume of 1 mL/kg.
Sampling: Sublingual blood samples of 250 uL were collected from unanaesthetised rats in EDTA-coated vials (Microvette 600K3E ref #15.1673.100 Sarstedt) at baseline (-1 h before dosing) as well as 5 min (only i.v. dosed groups), 2 h, 6 h, 24 h, 48 h and 72 h (only for exposure analysis) post-dosing. The blood samples were quickly stored on ice and centrifuged (4° C., 8000 RPM, 5 min) within 10 min of collection. Plasma samples of 50 μL were transferred to each micronic tube for either exposure or cGMP analysis, kept on dry ice and stored in a freezer (−20° C.). Rats had access to food (Altromin) and tap water ad libitum.
Analysis: PK parameters were calculated by non-compartment analysis (NCA) using software Phoenix WinNonlin (ver. 8.1 or later, Certara) for each animal. Clearance (Cl) was calculated as: Dose/AUCinf (linear up, log down). […] Bioavailability was calculated as dose normalized AUC's: (AUC(sc)/Dose(sc))/(AUC(iv)/Dose(iv)). Values in the table are means from individual animals (n=4-6 individual animals). The subsequent plots for cGMP plasma concentration versus time are (Y-axis) mean cGMP concentration (n=4-6 individual animals) after IV dosing and (X-axis) nominal plasma sampling time.
Plasma cGMP are reported as the mean.

Q: Which results are given for `CC[C@H](C)[C@@H]1NC(=O)[C@H](CCCNC(=N)N)NC(=O)[C@H](CC(=O)O)NC(=O)[C@H](CC(C)C)NC(=O)[C@@H]2CCCN2C(=O)[C@H](CC(C)C)NC(=O)CNC(=O)[C@H](Cc2ccccc2)NC(=O)[C@@H](NC(=O)CNC(=O)[C@H](CCCCN)NC(=O)[C@H](CO)NC(=O)[C@H](CC(C)C)NC(=O)CNC(=O)[C@H](CCCCN)NC(=O)[C@H](CCCCN)NC(=O)[C@H](CCC(N)=O)NC(=O)[C@H](C)NC(=O)CNC(=O)[C@H](CCC(=O)O)NC(=O)[C@H](Cc2ccc(O)cc2)NC(=O)COCCOCCNC(=O)COCCOCCNC(=O)CC[C@H](NC(=O)CCCCCCCCCCCCCCCCCCC(=O)O)C(=O)O)CSSC[C@@H](C(=O)O)NC(=O)CNC(=O)[C@H](CC(C)C)NC(=O)CNC(=O)[C@H](CO)NC(=O)[C@H](CC(C)C)NC(=O)[C@H](CO)NC(=O)CNC1=O` [compound 1376] ({C20 diacid-γGlu-AEEA-AEEA}-YEGAQKKGLSKGCFGLPLDRIGSLSGLGC-OH; disulfide 13-29)?
A: clearance (read-out: Cl (L/hr/kg), i.v. administration (converted)): 0.00418 L/h/kg; half-life (read-out: T½ (hr), i.v. administration (converted)): 9.55 h
